The subject of one experiment is Walker carcinosarcoma. In words: Nitrosyl complexes of hem iron (EPR) in Walker carcinosarcoma. It is filed as in vivo, rats. Conditions: 30 mg/kg intraabdominally in liposomes, especially with hyperglycemia and ultrasound. From the text:
The oxygen metabolism in malignant cells is affected in such a way that increased NO production in these cells results in increased binding of NO to the hem iron, thereby disturbing the normal function thereof. The formation of such NO bonds becomes manifest in the EPR spectrum as a characteristic triplet overlying a singlet.
The effect of complex A on the concentration of Fe—NO bonds was investigated in an experiment using rats. The Walker carcinosarcoma was transplanted in the rats. 17 days after transplantation the animals were administered intraabdominally with complex A at a dosage of 30 mg/kg, suspended in liposomes from egg lecithin. Some of the animals also received glucose or glucose plus ultrasound.

For experiment [1], the system named is human mammary gland tumor cells. In words: In vitro effect on human mammary gland tumor cells (trypan blue, photography). It counts as cell-based. On the procedure:
From a patient with mammary carcinoma already showing signs of decay, postoperational material was collected and the tumor cells were separated therefrom. A suspension of these tumor cells was added with trypan blue dye and complex A. During the course of the test, three cells situated closely to each other (A, B and C) were documented by photography (FIGS. 22a, 22b and 22c). After incubating for 18 minutes, wrinkling of the membrane of cell A and invagination of the membrane of cell B can be recognized. After 28 minutes of incubation, cell fragments become stained with trypan blue, a sign that apoptosis has begun. After 43 minutes of incubation, membrane components and the contents thereof detach from the cells.

Regarding “Copper-sarcolysine hydrochloride complex [complex A]”, the “concentration of Fe—NO bonds (EPR)” value in the experiment with Walker carcinosarcoma was “significantly reduces”. In experiment [1], the “incubation time to wrinkling / invagination of the cell membrane” value came out at 18 min; the “incubation time until cell fragments stain with trypan blue (apoptosis has begun)” value was 28 min; the “incubation time until membrane components and contents detach from the cells” value is 43 min.
